Reference: patent EP4332093A1, “SALT CONTAINING PIPERAZINE POLYCYCLIC DERIVATIVE, CRYSTAL FORM THEREOF, PREPARATION METHOD THEREFOR, AND USE THEREOF” (Shanghai Hansoh Biomedical Co., Ltd., priority 2021, dated 2022)
Where two headings read alike, the source gives them in different places. Blank lines part the entries; values can stand above or below the compound they belong to.

Legend:
5-HT2A receptor [1] = molecular target: T1, 5-HT2A receptor (Homo sapiens, UniProt P28223); assay: Radioligand binding assay, 5-HT2A receptor ([3H]-Ketanserin); design: purchased PerkinElmer; details: Human 5-HT2A Receptor membrane, [3H]-Ketanserin 2 nM; read-out: 5HT-2A Binding IC50
T1 sequence (P28223 whole entry): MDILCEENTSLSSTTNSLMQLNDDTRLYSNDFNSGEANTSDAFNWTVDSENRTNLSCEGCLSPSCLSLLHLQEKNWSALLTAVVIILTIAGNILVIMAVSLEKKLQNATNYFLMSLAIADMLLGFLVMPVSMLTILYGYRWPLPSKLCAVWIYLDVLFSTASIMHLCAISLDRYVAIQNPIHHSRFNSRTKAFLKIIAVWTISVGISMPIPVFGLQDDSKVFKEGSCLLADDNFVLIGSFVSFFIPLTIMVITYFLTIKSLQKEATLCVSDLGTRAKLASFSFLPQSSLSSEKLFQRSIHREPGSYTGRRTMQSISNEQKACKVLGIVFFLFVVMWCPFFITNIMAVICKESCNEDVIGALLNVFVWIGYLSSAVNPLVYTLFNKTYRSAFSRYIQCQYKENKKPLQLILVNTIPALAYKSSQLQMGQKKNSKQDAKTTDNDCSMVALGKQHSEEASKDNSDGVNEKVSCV
Protocol: Determination of the binding ability of the compounds of the
present invention to 5-HT2A receptor
The objective of this test example is to determine the affinity of the compounds for 5-HT2A receptor.
Experimental buffer: 50 mM Tris-HCl pH 7.4, 4 mM CaCl2; washing liquor: 50 mM Tris-HCl pH 7.4, stored at 4°C; 0.5% PEI solution: 0.5 g PEI dissolved in 100 mL ddH2O, 4°C storage of spare.
5 µL of the test compounds (0.005 nM to 100 nM, 10 concentrations in total) and 100 µL of buffer were added to a 96-well assay plate. 1.5 µL of cell membrane and 300 µL of buffer were added to each well, and the plate was shaken at 600 rpm for 5 minutes. 100 µL of a mixed solution of buffer and [^3H]-Ketanserin (final concentration of 2 nM) was added to the reaction system per well, and the plate was shaken at 600 rpm for 5 minutes and incubated at 27°C for 30 min. The […]-96 GF/B filter plate pre-incubated with 0.5% PEI for 1 h was washed twice with the buffer (1 mL/well). The cell membrane suspension was added to the […]-96 GF/B filter plate, washed 4 times, and incubated at 55°C for 10 min. 40 µL of ULTIMA GOLD was added to each well, and liquid scintillation counting was carried out.
(§1) The CPM (Counts per minute) values were determined by TopCount. […] The 10 concentrations of the compound were from 100 nM to 0.005 nM after 3-fold dilution of the reaction system. The percent inhibition rate and ten-point concentration data were fitted to the parametric nonlinear logistic equation by using GraphPad prism to calculate the IC50 values of the compound.

dopamine D3 receptor = molecular target: T2, dopamine D3 receptor (Homo sapiens, UniProt P35462); assay: Radioligand binding assay, dopamine D3 receptor ([3H]-methylspiperone); details: Human Dopamine D3 Receptor membrane, [3H]-methylspiperone 0.5 nM
T2 construct: purchased PerkinElmer ES-173-M400UA
T2 sequence (P35462 whole entry): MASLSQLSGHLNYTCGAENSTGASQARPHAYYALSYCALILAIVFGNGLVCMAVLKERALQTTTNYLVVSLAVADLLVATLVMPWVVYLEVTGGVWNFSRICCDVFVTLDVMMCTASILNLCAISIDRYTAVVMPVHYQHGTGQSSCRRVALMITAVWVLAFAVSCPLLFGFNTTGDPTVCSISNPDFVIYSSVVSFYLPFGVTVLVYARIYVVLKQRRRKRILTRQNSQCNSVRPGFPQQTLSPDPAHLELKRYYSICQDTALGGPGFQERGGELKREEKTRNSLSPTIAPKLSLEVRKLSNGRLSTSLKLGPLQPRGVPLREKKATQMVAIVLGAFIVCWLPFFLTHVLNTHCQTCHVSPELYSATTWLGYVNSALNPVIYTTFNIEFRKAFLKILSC
Protocol: Determination of the binding ability of the compounds of the present invention to dopamine D3 receptor
The objective of this test example is to determine the affinity of the compounds for dopamine D3 receptor.
Experimental buffer: 50 mM Tris-HCl pH 7.4, 10 mm MgCl2; washing liquor: 50 mM Tris-HCl pH 7.4, stored at 4°C; 0.5% PEI solution: 0.5 g PEI dissolved in 100 mL ddH2O, 4°C storage of spare.
5 µL of the test compounds (0.005 nM to 100 nM, 10 concentrations in total) and 100 µL of buffer were added to a 96-well assay plate. 1 µL of cell membrane and 300 µL of buffer were added to each well, and the plate was shaken at 600 rpm for 5 minutes. 100 µL of a mixed solution of buffer and [^3H]-methylspiperone (final concentration of 0.5 nM) was added to the reaction system per well, and the plate was shaken at 600 rpm for 5 minutes and incubated at 27°C for 30 min. The UNIFII,TER-96 GF/B filter plate pre-incubated with 0.5% PEI for 1 h was washed twice with the buffer (1 mL/well). The cell membrane suspension was added to the […]-96 GF/B filter plate, washed 4 times, and incubated at 55°C for 10 min. 40 µL of ULTIMA GOLD was added to each well, and liquid scintillation counting was carried out.
as §1

[2] = Solid stability experiment of crystal forms of salt (5 and 10 days); format: physicochemical
Protocol: About 1 mg of different crystal forms of salt were taken and placed under the conditions of light 5000lx, high temperature 60°C, high humidity 92.5%RH, high temperature and high humidity 50°C 75%RH for 5 days and 10 days. The salt content was determined by HPLC and external standard method, and the change of relevant substances was calculated by chromatographic peak area normalization method.

D3 receptor = molecular target: T3, D3 receptor (Homo sapiens, UniProt P35462); assay: cAMP content in cells stably expressing D3 receptors (CHO-D3, forskolin, HTRF); format: cell-based
T3 construct: expressed in transfected cells
T3 sequence (P35462 whole entry): as above
Protocol: Determination of the effect of the compounds of the present invention on cAMP content in cells stably expressing D3 receptors
To determine the activation effect of the compounds on D3 receptor.
• 1. Preparation of the buffer: 1* HBSS + 20mM HEPES + 0.1% BSA + 500 µM IBMX. Complete medium: Ham's F12K + 10% fetal bovine serum +1* penicillin-streptomycin + 400 µg/mL G418. • 2. CHO-D3 cells were cultured in the complete medium at 37°C, 5% CO2. After TrypLE digestion, the cells were resuspended in the experimental buffer, and seeded into a 384-well cell culture plate at a seeding density of 8000 cells per well. • 3. The experimental buffer (1*HBSS, 0.1% BSA, 20 mM HEPES and 500 µM IBMX) was prepared. The compound was diluted with the buffer. 2.5 µL of the compound solution was added to each well, and the plate was incubated at 37°C for 10 minutes. The forskolin was diluted to 8 µM (8*) with the experimental buffer. 2.5 µL of the diluted 8* forskolin was added, and the plate was incubated at 37°C for 30 minutes. cAMP-d2 and Anti-cAMP-Eu^3+ were thawed, and diluted by 20-fold with the lysis buffer. 10 µL of cAMP-d2 was added to the experimental well, followed by the addition of 10 µL of Anti-cAMP-Eu^3+. The reaction plate was centrifuged at 200 g for 30 s at room temperature, and left to stand at 25°C for 1 h. Data was collected using Envision.

5-HT2A receptor [3] = molecular target: T1, 5-HT2A receptor; assay: Calcium ion mobility in cells stably expressing 5-HT2A receptors (Flp-In-CHO-5HT2A, FLIPR); format: cell-based; design: expressed in transfected cells; details: Flp-In-CHO-5HT2A stable pool, 5HT stimulation
Protocol: Determination of the effect of the compounds of the present invention on calcium ion mobility in cells stably expressing 5-HT2A receptors
To determine the inhibitory effect of the compounds on 5-HT2A receptor.
• 1) Preparation of the buffer: 1 x HBSS, 20 mM HEPES, 2.5 mM probenecid (probenecid was 400 mM stock in 1 M NaOH), 0.1% BSA. Probenecid and BSA were added fresh on the day of the experiment. Experimental buffers include dye buffer and compound dilution buffer. • 2) Cell culture medium: Ham's F-12K + 10% fetal bovine serum + 600 µg/ml hygromycin B + 1* penicillin-streptomycin. Seeding medium: Ham's F-12K + 10% dialysis serum; Assay buffer: 1 x HBSS + 20 mM HEPES; Cell line: Flp-In-CHO-5HT2A stable pool. • 3) The cells were cultured in the complete medium at 37°C, 5% CO2 to 70%-90% confluency. The cells were digested with TrypLE, seeded to the 384-well assay plate at a density of 1 × 10^4 cells/well, and incubated for 16 to 24 hours (at least overnight). • 4) 20X Component A was thawed to room temperature, diluted to 2X working concentration (containing 5mM Probenecid) with the assay buffer, and placed at room temperature for later use. • 5) The cell culture plate was taken out and left to stand at room temperature for 10 min. […] 10 µl of diluted 5HT was add to each experimental well using FLIPR Tetra, and the values were read.
The calcium signal values were determined by FLIPR. The calculated output for each sampling time point in the experiment was the ratio of the 340/510 nm wavelength signals to 380/510 nm wavelength signals. The maximum minus minimum calculation was derived from the ratio signal curve. The percent inhibition rate and ten-point concentration data were fitted to the parametric nonlinear logistic equation by using GraphPad prism to calculate the IC50 values of the compound.

[4] = Pharmacokinetic assay in Balb/c mice (plasma and brain tissue); format: in vivo; details: male, mouse, po, p.o. 5 mg/kg; for AUC(0-t): read-out: Area under curve AUC0-t; for Tmax: read-out: Peak time tmax; for Cmax: read-out: Plasma concentration Cmax
Protocol: Balb/c mice were used as test animals. The pharmacokinetic behavior in mouse body (plasma and brain tissue) of the compounds of Examples of the present invention was studied at an oral administration dose of 5 mg/kg.
Compounds of the Examples of the present invention, prepared by the applicant.
Male Balb/c mice (12 mice per group), purchased from Shanghai Jiesijie Laboratory Animal Co., LTD, with Certificate No.: SCXK (Shanghai) 2013-0006 N0.311620400001794.
The test compound was dissolved in 0.5% CMC-Na (1% Tween80) by sonication to formulate a clear solution or homogeneous suspension.
After an overnight fast, male Balb/c mice (12 mice per group) were administered p.o. with the test compound at an administration dose of 5 mg/kg and an administration volume of 10 mL/kg.
0.2 mL of blood was taken from the heart of the mouse before administration and at 1, 2, 4, 8 and 24 hours after administration, and the mice were sacrificed with CO2. The samples were stored in EDTA-K2 tubes, and centrifuged for 6 minutes at 4°C, 6000 rpm to separate the plasma. The plasma samples were stored at -80°C. Whole brain tissue was taken out, weighed, placed in a 2 mL centrifuge tube, and stored at -80°C.
• 1) 160 µL of acetonitrile was added to 40 µL of the plasma sample for precipitation, and then the mixture was centrifuged for 5 to 20 minutes at 3500 × g. • 2) 90 µL of acetonitrile containing internal standard (100 ng/mL) was added to 30 µL of the plasma and brain homogenate sample for precipitation, and then the mixture was centrifuged for 8 minutes at 13000 rpm. • 3) 70 µL of water was added to 70 µL of the treated supernatant and mixed by vortex for 10 minutes. 20 µL of the supernatant was taken to analyze the concentration of the test compound by LC/MS/MS. LC/MS/MS analytical instrument: AB Sciex API 4000 Qtrap.
• Liquid chromatography condition: Shimadzu LC-20AD pump • Chromatographic column: Agilent ZORBAX XDB-C18 (50×2.1 mm, 3.5 µm); Mobile phase: Eluent A was 0.1% formic acid in water, and Eluent B was acetonitrile • Flow rate: 0.4 mL/min • Elution time: 0-4.0 minutes, the eluent is as follows:
The main parameters of pharmacokinetics were calculated by WinNonlin 6.1. Table 17: Experimental results of pharmacokinetic assay in mice

[5] = High humidity (92.5% RH), 5 Days
[6] = High humidity (92.5% RH), 10 Days
[7] = High temperature (60°C), 5 Days
[8] = High temperature (60°C), 10 Days
[9] = High temperature and high humidity (50°C 75%RH), 5 Days
[10] = High temperature and high humidity (50°C 75%RH), 10 Days

IC50 (5-HT2A receptor [1]): 44 nM
IC50 (dopamine D3 receptor): 0.62 nM
SMILES: O=S(=O)(NC1CC(CCN2CCN(c3cccc(Cl)c3Cl)CC2)C1)C1CC1 (centres unmarked) [Example 11, N-(3-(2-(4-(2,3-Dichlorophenyl)piperazin-1-yl)ethyl)cyclobutyl)cyclopropanesulfon amide]

SMILES: O=C(N[C@H]1C[C@H](CCN2CCN(c3cccc(Cl)c3Cl)CC2)C1)c1ncco1 [Crystal form A of hydrochl oride]
Maximum single impurity increase% [2, 5]: 0.06%
Total impurity increase% [2, 5]: 0.06%
Maximum single impurity increase% [2, 6]: <0.02%
Total impurity increase% [2, 6]: <0.02%
Maximum single impurity increase% [2, 7]: <0.02%
Total impurity increase% [2, 7]: <0.02%
Maximum single impurity increase% [2, 8]: <0.02%
Total impurity increase% [2, 8]: 0.03%
Maximum single impurity increase% [2, 9]: <0.02%
Total impurity increase% [2, 9]: <0.02%
Maximum single impurity increase% [2, 10]: <0.02%
Total impurity increase% [2, 10]: <0.02%
Maximum single impurity increase% ([2]; Light (5000lx), 5 Days): <0.02%
Total impurity increase% ([2]; Light (5000lx), 5 Days): <0.02%
Maximum single impurity increase% ([2]; Light (5000lx), 10 Days): <0.02%
Total impurity increase% ([2]; Light (5000lx), 10 Days): <0.02%

SMILES: O=C(N[C@H]1C[C@H](CCN2CCN(c3cccc(Cl)c3Cl)CC2)C1)c1ncco1 [crystal form B of p-toluenesulfonate]
crystal form stability (single impurity) ([2]; light conditions (5000lx)): single impurity increases significantly
crystal form stability ([2]; other conditions (60°C, 92.5% RH, 50°C 75% RH)): stable

SMILES: O=C(N[C@H]1C[C@H](CCN2CCN(c3cccc(Cl)c3Cl)CC2)C1)c1ncco1 [Crystal form B of p-toluene sulfonate]
Maximum single impurity increase% [2, 5]: <0.02%
Total impurity increase% [2, 5]: <0.02%
Total impurity increase% [2, 8]: <0.02%
Maximum single impurity increase% ([2]; Light (5000lx), 5 Days): 0.13%
Total impurity increase% ([2]; Light (5000lx), 5 Days): 0.03%
Maximum single impurity increase% ([2]; Light (5000lx), 10 Days): 0.13%
Total impurity increase% ([2]; Light (5000lx), 10 Days): 0.19%

EC50 (D3 receptor): 2.8 nM
IC50 (5-HT2A receptor [3]): 6.44 nM
AUC(0-t) ([4]; Brain): 2080 ng·h/mL
Tmax ([4]; Brain): 60 min
Cmax ([4]; Brain): 569 ng/mL
AUC(0-t) ([4]; Plasma): 503 ng·h/mL
AUC(0-inf) ([4]; Plasma, read-out: Area under curve AUC0-∞): 541 ng·h/mL
MRT ([4]; Plasma, read-out: Average residence time MRT): 2.8 h
half-life ([4]; Plasma, read-out: Half life t1/2 (converted)): 126 min
Tmax ([4]; Plasma): 30 min
Cmax ([4]; Plasma): 254 ng/mL
SMILES: O=C(NC1CC(CCN2CCN(c3cccc(Cl)c3Cl)CC2)C1)c1nccs1 (centres unmarked) [Example 7, N-(3-(2-(4-(2,3-Dichlorophenyl)piperazin-1-yl)ethyl)cyclobutyl)thiazole-2-carboxamide]
